Source: the Kinase Knowledgebase extract (Sharma et al. 2016)
Where “and” joins values, the source holds several entries; their conditions need not be identical. Equal values may be shown once.

Tests used:
MAPK14 (rat) [1] = experiment: Cell-Based Assay; details: mesencephalic neurons
MAPK14 (rat) [2] = experiment: Cell-Based Assay; details: mesencephalic neurons; remark: listed apart in the source
MAPK14 (rat) [3] = experiment: Animal Model; details: mesencephalon tissue

Compound	cell count (MAPK14 (rat) [1]) [cm-2]	response (MAPK14 (rat) [1]) [cm2]	cell count (MAPK14 (rat) [2]) [cm-2]	response (MAPK14 (rat) [2])	cell count (MAPK14 (rat) [3])
O=[N+]([O-])c1ccc(-c2nc(-c3ccc(F)cc3)c(-c3ccncc3)[nH]2)cc1	421	454	283	400 cm2 and 570 cm2	3020
Oc1ccc(-c2nc(-c3ccc(F)cc3)c(-c3ccncc3)[nH]2)cc1			283	600 cm2 and 473 cm2	
